Assay results reported in patent US12251373B2, “Compounds and methods of treating retinal degeneration” (CASE WESTERN RESERVE UNIVERSITY, priority 2017, dated 2025).

Columns and labels:
[1] = Pharmacokinetics of YC-001 in mouse plasma; type: in vivo
Procedure: C57BL/6J mice ranging from 8 to 12 weeks of age were purchased from Jackson Labs. For administration, YC-001 was dissolved in DMSO at 160 mg mL^−1. To obtain the blood clearance curve for YC-001, each animal was treated by intraperitoneal injection of YC-001 at 200 mg kg^−1 bw. After administration, blood was collected at 5, 10, 15, 20, 30, 45, 60 and 90 min from the orbital sinus and dropped into K2EDTA blood collection tubes (FisherScientific). Mice were anesthetized with a ketamine/xylazine cocktail two min before blood collection. The blood samples were then incubated at 4° C. for 2 h before centrifugation at 1,800×g for 20 min to collect the supernatant that was the plasma. Plasma was mixed with twice the volume of methanol and then stored at −80° C. YC-001 was extracted from the samples (300 to 600 μL) with 0.6 mL chloroform. The chloroform fraction was collected, dried, and the extracted organic compounds were dissolved in 0.25 mL of methanol. One hundred-μL of each sample was injected onto an Eclipse XDB-C18 column (4.6×150 mm, 5 μm) and YC-001 was detected and quantified as described in the section Metabolic stability of YC-001.

[2] = Metabolic stability in mouse liver microsomes; type: in vitro ADME; conditions: 5 μM, with NADPH, vs verapamil
Procedure: (§1) A standard metabolic stability assay was performed in the presence of mouse or human liver microsomes. YC-001 (5 μM) was incubated with the microsomes (0.125 mg mL^−1) resuspended in 0.2 mL of PBS buffer, pH 7.4 composed of 10 mM Na2HPO4, 1.8 mM KH2PO4, 137 mM NaCl, and 2.7 mM KCl. The enzymatic reaction to produce oxidized metabolites was initiated by addition of NADPH (1 mM). Samples were incubated at 37° C. for up to 240 min. Incubation without the cofactor was conducted in parallel to assess NADPH-independent clearance. The reactions were stopped with 0.2 mL of methanol followed by 0.3 mL chloroform. Residual YC-001 was extracted by vigorous shaking. To facilitate phase separation, the samples were spun down for 2 min, 15,000×g. The chloroform fraction was collected, dried down, and the extracted organic compounds were redissolved in 0.2 mL of methanol. To quantify YC-001, the samples were injected onto an Eclipse XDB-C18 column (4.6×150 mm, 5 μm) (Agilent Technologies) equilibrated with solvent composed of 30% acetonitrile in water (v/v), and 0.1% formic acid. YC-001 was eluted in a gradient of acetonitrile in water (30-100%) developed within 15 min at a flow rate of 1 mL min^−1, detected at 350 nm, and quantified by correlating peak areas with known quantities of an original synthetic standard. […]

[3] = Metabolic stability in human liver microsomes; type: in vitro ADME; conditions: 5 μM, with NADPH, vs verapamil
Procedure: as §1

## O=C1OCC(c2ccc(Cl)s2)=C1c1cccs1 [YC-001]
[1]; 0.693/T1/2
  elimination rate constant (Ke): 0.0201 min⁻¹
[1]; Dose/C0
  volume of distribution (Vd): 27.5 L kg−1 bw
[1]; Ke×Vd
  Clearance: 0.552 L min−1 kg−1 bw
[2]
  initial clearance in liver microsomes: even higher initial clearance
[3]
  initial clearance in liver microsomes: even higher initial clearance
